Key:
[1] = tested on: N-glycan glycosylation profile of DVD-Ig (DVD 1) expressed in CHO cells; experiment: N-glycan oligosaccharide profile of DVD-Ig (DVD 1) from shake flask culture; assay type: cell-based, Chinese Hamster
Procedure: Sodium citrate was included to provide additional evidence that the impact to the oligosaccharide profile with the prior experiments was a result of the iron addition. All conditions were performed in triplicate.

[2] = tested on: N-glycan glycosylation profile of Antibody 1; experiment: N-glycan oligosaccharide profile of Antibody 1 in bioreactors; assay type: cell-based, Chinese Hamster; conditions: pH 6.90, dissolved oxygen 40% air saturation, two independent experiments
Procedure: Prior experiments included iron supplementation in shake flask cultures. Experiments with the cell line expressing Antibody 1 and with a cell line expressing a different DVD-Ig (denoted DVD 2, also called ABT-122) than discussed previously were carried out to confirm the impact from iron supplements would be observed in bioreactors. Operating conditions were similar to shake flask experiments, but now included pH control at pH 6.90 and dissolved oxygen control at a setpoint of 40% air saturation. Antibody 1 bioreactors were run in triplicate with the exception of the 0.08 mM FC condition. DVD 2 bioreactors were run in duplicate.

[3] = tested on: N-glycan glycosylation profile of Antibody 1 expressed in CHO cells; experiment: N-glycan oligosaccharide profile of Antibody 1 from shake flask culture (2-AB labelling, normal phase HPLC); conditions: for galactosylation: Example 7
Excerpt: (§1) To test the effect of metal ions of protein glycosylation, recombinant Chinese Hamster Ovary (CHO) cell lines (CHO DUX-B11 origin based on a DHFR (dihydrofolate reductase) expression system) expressing two different humanized monoclonal antibodies (Antibody 1, Antibody 2) or a dual variable domain immunoglobulin (DVD-Ig) were shake flask cultured in chemically defined basal medium (CDBM) and chemically defined feed medium (CDFM) supplemented with selected iron compounds. The cell lines were serially expanded through separate seed train inoculums to generate enough cells for inoculation. All supplemented cultures were performed in triplicate unless otherwise indicated.
The glycosylation profile of the recombinantly expressed proteins was then determined using standard procedures. Approximately 200 μg of Protein A purified samples from Cell Lines 1 and 2 were then treated with N-glycanase at 37° C. overnight to remove the N-glycans from the protein. The protein was precipitated and the supernatant was taken for subsequent chemical derivatization of the reducing end of the released glycans with 2-aminobenzamide (2-AB) dye. Following the derivatization step, the excess labeled was removed using clean up cartridges and the samples were analyzed using normal phase HPLC with fluorescent detection. Mobile phase A was 100% acetonitrile and mobile phase B was 50 mM ammonium formate pH 4.4. The glycan were eluted from a polyamide column (Prozyme, Hayward, Calif.) using a shallow gradient. The labeled glycans were detected using a fluorescence detector with an excitation wavelength of 330 nm and an emission wavelength of 420 nm.
Concentrations of the respective iron compounds were chosen so as to minimize any potential adverse impacts on cell growth and productivity, but still facilitate a measurable impact on the glycoform profile. […] Cell culture process performance indicators were monitored and measured throughout the respective cultures. Viable cell density, cell viability, harvest titer, and harvest N-glycan oligosaccharide data was measured and reported.
By introducing iron to the culture via the feed medium, exposure to iron would be more gradual over the length of the culture. The impact to Antibody 1 was evaluated in triplicate shake flasks as described previously.
All evaluations were performed in triplicate in shake flasks with the cell line expressing Antibody 1.
The next set of experiments explored if iron transport into the cell or the galactose availability were the limiting factors. Recombinant transferrin (rTf) was added to triplicate shake flask cultures with the cell line expressing Antibody 1 with varying concentrations of ferric citrate. An independent experiment was performed with the same cell line to also determine if galactose supplementation in addition to iron and transferrin would enhance the galactosylation with triplicate shake flasks for each condition.

[4] = tested on: CHO cell line expressing Antibody 2; experiment: Shake flask fedbatch culture performance, cell line expressing Antibody 2; assay type: cell-based, Chinese Hamster; conditions: 0.1 or 1.0 mM in basal medium; vs unsupplemented control
Excerpt: as §1
Absolute concentrations were assigned with respect to reference standard calibration curves.
The unsupplemented control was performed in duplicate.

[5] = Example 2, vs unsupplemented control

ferric citrate
galactosylation ([1]; increased concentration (0.1, 1 mM)): increased galactosylation | increase in total NA1F and NA2F species [2]: dose-dependence effect | N-glycan glycoform profile (overall result) ([3]; Example 2, concentration dependence below 1.0 mM): very similar results to ferric nitrate | increase of peak viable cell density [4]: 4 ×10^6 cells/mL

O=C([O-])CC(O)(CC(=O)[O-])C(=O)[O-].[Na+].[Na+].[Na+] [Sodium citrate, reference compound]
effect on oligosaccharide profile ([1]; 0.5 mM, vs unsupplemented control): no effect on the oligosaccharide profile

transferrin: Recombinant transferrin (rTf) added to shake flask cultures
galactosylation ([3]; added with varying concentrations of ferric citrate, without galactose): no impact was observed to the galactosylation

ferrous sulfate
increase in NA2F species [3, 5]: 3 fold | increase in total NA1F species [3, 5]: 3 fold

O=C[C@H](O)[C@@H](O)[C@@H](O)[C@H](O)CO [galactose]
galactosylation ([3]; supplemented with iron (ferric citrate)): increased galactosylation is observed overall | dose dependence of galactosylation ([3]; Example 8, galactose supplementation with ferric citrate): dose-dependence is observed

Source: patent US9598667B2, “Use of metal ions for modulation of protein glycosylation profiles of recombinant proteins” (AbbVie, Inc., priority 2013, dated 2017)
